The values below come from PMC10064984, “Anti-cyclooxygenase, anti-glycation, and anti-skin aging effect of Dendrobium officinale flowers’ aqueous extract and its phytochemical validation in aging” (Frontiers in Immunology, 2023).

What all share (assay type): biochemical
Assay [1] in a line: DPPH· scavenging.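 Further: colourimetric DPPH radical scavenging in 96-well plates, absorbance read-out, percent inhibition relative to ethanol control absorbance, IC50 derived graphically from dose-inhibition curves.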 The note with it: mean ± SD, n = 3. In general terms: The DPPH test is a chemical assay of radical scavenging.
A short description of assay [2]: ABTS·+ decolourisation capacity. The conditions noted are these: for ABTS scavenging rate: 0.5mM series, replicate wells; for IC50: mean ± SD, n = 3. Here is the method:
Fast colourimetric methods were slightly modified for the in vitro assessment of DPPH· scavenging ([19]), ABTS·+ decolourisation capacity ([20]), and total antioxidant capacity of FRAP ([21]). The stock solutions of derivatisation reagents were diluted as follows before measurement: DPPH was diluted with absolute ethanol until the absorbance was 0.8 ± 0.05 at λ = 517 nm. ABTS working solution was prepared with phosphate buffer (0.2 M, pH 7.4) to display absorbance of 0.8 ± 0.05 at λ = 729 nm, based on a previous study ([22]). The FRAP solution was prepared according to the instructions of the FRAP kit. Absorbances were measured using an automatic microplate reader (Molecular Group Ltd., USA), and all analyses were performed using 96-well plates. All measurements were performed in triplicate, and Trolox was used as a positive control.
For ABTS·+ decolourisation capacity, 100 μl of ABTS working solution was mixed with 200 μl of sample solution, and the absorbance was recorded after 10 min at 729 nm. Phosphate buffer (0.2 M, pH 7.4) was used as a negative control.
DPPH· and ABTS·+ radical scavenging activities of the tested sample were both calculated using the following formula:
% inhibition = (A control − A sample)/A control × 100
Where A control and A sample represent the absorbance of the control and test samples, respectively. The IC50 was calculated graphically from the dose-inhibition curves.

Assay [3] in a line: FRAP total antioxidant capacity.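 Further: colourimetric FRAP kit assay read as absorbance in 96-well plates, values as mM FeSO4 via standard curve, EC1 being sample concentration matching 1.0 mmol/L FeSO4, Trolox positive control.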 The conditions noted are these: lower part of sheet (compound series).
Assay [4] has as its target T1, COX-2 (Homo sapiens, UniProt P35354).
T1 construct: purchased Beyotime S0168
T1 sequence (P35354 18-604): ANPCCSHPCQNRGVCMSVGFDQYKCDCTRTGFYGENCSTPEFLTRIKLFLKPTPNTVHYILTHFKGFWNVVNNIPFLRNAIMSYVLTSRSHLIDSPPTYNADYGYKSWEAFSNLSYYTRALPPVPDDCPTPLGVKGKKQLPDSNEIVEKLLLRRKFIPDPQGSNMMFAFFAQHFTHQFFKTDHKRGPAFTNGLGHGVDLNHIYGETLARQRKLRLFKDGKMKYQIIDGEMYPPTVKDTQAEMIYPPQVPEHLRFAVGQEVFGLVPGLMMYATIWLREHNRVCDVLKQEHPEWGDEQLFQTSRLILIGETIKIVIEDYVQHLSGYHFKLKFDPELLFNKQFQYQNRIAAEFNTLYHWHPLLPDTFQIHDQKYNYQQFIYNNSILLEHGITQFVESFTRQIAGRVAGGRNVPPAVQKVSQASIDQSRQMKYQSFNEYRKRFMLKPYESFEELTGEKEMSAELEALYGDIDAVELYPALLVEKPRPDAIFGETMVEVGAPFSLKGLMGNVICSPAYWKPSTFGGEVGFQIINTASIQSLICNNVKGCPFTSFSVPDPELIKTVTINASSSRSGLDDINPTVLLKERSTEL
In words: Anti-COX-2 assay (COX-2 Inhibitor Screening Kit).

Assay [5] can be described thus: Fluorescent AGEs formation in a BSA-fructose/glucose system. The conditions noted are these: mean ± SD, n = 3; read-out: BSA-glycation IC50. Here is the method:
Glycated protein was prepared in vitro by incubating BSA in the presence of D-glucose (GLC) and D-fructose (FRC). The DOF extract and specific standards were dissolved in DMSO:water (1:4). […] The assay was performed in triplicate, and AG was used as a positive control. The percentage inhibition of fluorescent AGE formation was calculated using the following equation: […] Where IF sample is fluorescence intensity in the presence of samples and BSA, IF sample control is fluorescence intensity in the presence of samples without BSA, IF control is fluorescence intensity without samples, and IF blank control is fluorescence intensity without samples and BSA.

Setting [6] is: mean ± SD, n = 3, nd, not detected, read-out: COX-2 IC50.
[7] abbreviates: supplement sheet COX, read-out: COX-2 IC50, single replicate.

SMILES strings stand for the structures. Several values for one entry are separate records, joined by “and”; a condition that tells them apart may be missing. Identical values can stand only once. Like-named read-outs stand apart in the source and are kept apart here.

Consider `O=c1cc(-c2ccc(O)c(O)c2)oc2c(C3OCC(O)C(O)C3O)c(O)c(C3OC(CO)C(O)C(O)C3O)c(O)c12` [compound 15, Luteolin-6-C-β-D-glucoside-8-C-β-D-xyloside], for which the half-maximal inhibitory concentration (IC50) in assay [1] is 145 ± 51.4 µM; in assay [2], 13.8 ± 0.82 µM; in assay [4] (setting [6]), 13.9 ± 2.4 µM; in assay [4] (setting [7]), 11.2 µM and 15.8 µM and 14.8 µM; in assay [5] it was 294 ± 13.3 µM. Further, the ABTS scavenging rate in assay [2] (concentration 7.8125 (unit not given), listed as T19) was 33.84% and 32.82% and 31.57%; in assay [2] (concentration 15.625 (unit not given), listed as T19), 51.02% and 51.43% and 45.77%; in assay [2] (concentration 31.25 (unit not given), listed as T19) it was 80.79% and 81.13% and 77.35%; in assay [2] (concentration 62.5 (unit not given), listed as T19), 99.45% and 99.39% and 98.61%; in assay [2] (concentration 125 (unit not given), listed as T19) it was 99.58% and 99.48% and 99.50%; in assay [2] (concentration 250 (unit not given), listed as T19), 99.61% and 99.60% and 99.48%. The ABTS scavenging rate in assay [2] (concentration 500 (unit not given), listed as T19) is 99.69% (2×) and 99.56%. Moreover, the “FRAP EC1” value in assay [3] turned out to be 1100.3 ± 138.4 µM. Moreover, the “COX-2 inhibition (in words)” value in assay [4] is given as “great COX-2 inhibition”. This molecule also had an inhibition at 3.125 µM in assay [4] (3.125 μM, single replicates) of 14.6%. Further, the COX-2 inhibition in assay [4] (3.125 μM, single replicates, listed as T19, 3.125 µM) is 14.16% and 11.51%; in assay [4] (6.25 μM, single replicates, listed as T19, 6.25 µM), 23.77% and 25.81%; in assay [4] (12.5 μM, single replicates, listed as T19, 12.5 µM), 53.05% and 54.30%; in assay [4] (25 μM, single replicates, listed as T19, 25 µM), 68.96% and 71.63%; in assay [4] (50 μM, single replicates, listed as T19, 50 µM), 74.58% and 74.45%; in assay [4] (100 μM, single replicates, listed as T19, 100 µM), 75.76% and 77.02%. Moreover, the COX-2 inhibition in assay [4] (200 μM, single replicates, listed as T19, 200 µM) was 78.95% and 81.08%. The same molecule showed an inhibition at 6.25 µM in assay [4] (6.25 μM, single replicates) of 39.3%. The inhibition at 12.5 µM in assay [4] (12.5 μM, single replicates) was found to be 60.5%. 25 µM produced 71.9% inhibition in assay [4] (25 μM, single replicates). In assay [4] (50 μM, single replicates), this molecule registered an inhibition at 50 µM of 75.8%. In assay [4] (100 μM, single replicates), this molecule registered an inhibition at 100 µM of 83.1%. In addition, in assay [4] (200 μM, single replicates), 200 µM produced 80.8% inhibition.

On to `O=c1cc(-c2ccc(O)cc2)oc2c(C3OCC(O)C(O)C3O)c(O)c(C3OC(CO)C(O)C(O)C3O)c(O)c12` (stereo not shown) [compound 17, Schaftoside], for which the IC50 is above 5000 µM in assay [1], 75.6 ± 12.1 µM in assay [2] and 250 ± 4.16 µM in assay [5]. Besides, the “FRAP EC1” value in assay [3] was above 5000 µM. The “COX-2 inhibition (in words)” value in assay [4] is recorded as “no inhibitory effects”. For the same molecule, the COX-2 inhibition is -26.58% and -23.72% and 26.46% in assay [4] (31.25 μM, single replicates, listed as T4, 31.25 µM); -5.78% and -8.50% and -9.30% in assay [4] (62.5 μM, single replicates, listed as T4, 62.5 µM); -21.60% and 2.72% in assay [4] (125 μM, single replicates, listed as T4, 125 µM); -34.33% and -33.14% and 20.94% in assay [4] (250 μM, single replicates, listed as T4, 250 µM); -36.70% and -25.03% and -14.74% in assay [4] (500 μM, single replicates, listed as T4, 500 µM); -40.79% and -25.81% and -34.65% in assay [4] (1000 μM, single replicates, listed as T4, 1000 µM). In assay [4] (2000 μM (2mM), single replicates, listed as T4), the COX-2 inhibition is -30.80% and -21.24% and -15.63%.

Consider `O=c1cc(-c2ccc(O)c(O)c2)oc2cc(O)c(C3OC(CO)C(O)C(O)C3O)c(O)c12` [compound 18, Luteolin-6-C-β-D-glucoside], for which the concentration for half-maximal inhibition (IC50) in assay [1] is 102 ± 6.2 µM; in assay [2], 7.1 ± 0.1 µM; in assay [4] (setting [6]), 7.9 ± 2.4 µM; in assay [4] (setting [7]) it was 10 µM and 8.56 µM and 5.24 µM; in assay [5], 317 ± 15.6 µM. For the same molecule, the ABTS scavenging rate in assay [2] (concentration 7.8125 (unit not given), listed as T17) was 55.37% and 55.07% and 56.44%; in assay [2] (concentration 15.625 (unit not given), listed as T17), 79.33% and 79.42% (2×); in assay [2] (concentration 31.25 (unit not given), listed as T17), 99.48% (2×) and 99.43%; in assay [2] (concentration 62.5 (unit not given), listed as T17), 99.27% and 99.11% and 99.08%; in assay [2] (concentration 125 (unit not given), listed as T17), 99.06% and 98.78% and 98.90%; in assay [2] (concentration 250 (unit not given), listed as T17), 98.95% and 99.14% and 99.11%. In assay [2] (concentration 500 (unit not given), listed as T17), the ABTS scavenging rate is 99.30% and 99.22% and 99.17%. Besides, the “FRAP EC1” value in assay [3] worked out at 506.6 ± 78.3 µM. The “COX-2 inhibition (in words)” value in assay [4] is given as “great COX-2 inhibition”. Besides, in assay [4] (3.125 μM, single replicates), the inhibition at 3.125 µM worked out at 16.9%. Further, the COX-2 inhibition is 26.59% and 29.93% in assay [4] (3.125 μM, single replicates, listed as T17, 3.125 µM); 36.73% and 36.77% and 59.48% in assay [4] (6.25 μM, single replicates, listed as T17, 6.25 µM); 69.47% and 74.84% in assay [4] (12.5 μM, single replicates, listed as T17, 12.5 µM); 75.14% and 79.85% in assay [4] (25 μM, single replicates, listed as T17, 25 µM); 79.38% and 83.25% in assay [4] (50 μM, single replicates, listed as T17, 50 µM); 81.46% and 83.62% in assay [4] (100 μM, single replicates, listed as T17, 100 µM). Also, the COX-2 inhibition in assay [4] (200 μM, single replicates, listed as T17, 200 µM) was 89.90% and 90.15%. In addition, the inhibition at 12.5 µM in assay [4] (12.5 μM, single replicates) was 65.1%. At 25 µM the inhibition in assay [4] (25 μM, single replicates) was 74.8%. For the same molecule, 50 µM produced 78.4% inhibition in assay [4] (50 μM, single replicates). The inhibition at 100 µM in assay [4] (100 μM, single replicates) was 84.8%. In addition, testing at 200 µM in assay [4] (200 μM, single replicates) gave an inhibition of 90.6%.

A word on the IC50: it is the concentration needed to halve the response being measured. The term inhibition denotes the change of the read-out against control, counted positive when it falls. A higher inhibition goes with a strong effect.
